Several values for one entry are separate records, joined by “and”; a condition that tells them apart may be missing. Equal values may be shown once.

A short description of data set [1]: Forward osmosis flux experiments (FO mode) against pure water. Particulars: about 30 wt % CHP-H+ or 0.9 mol/kg NaCl against pure water, identical membranes. On the procedure:
All flux experiments were conducted in “FO mode” with the membrane's active layer facing the feed solution. The process was allowed 1-5 minutes to equilibrate and the average of the next 10 minutes was reported as the “initial flux.”
Using identical membranes and test conditions, the water flux for CHP-H^+ was 10 kg/m^2 hr compared with 10 kg/m^2 hr for the NaCl solution.

Data set [2] in a line: Freezing point depression osmometry: maximum concentration and osmotic pressure. It counts as physicochemical. To be noted: for maximum osmotic pressure (projected): full/high concentration, projected from dilute solution freezing point data. On the procedure: (§1) House deionized (DI) water was used in all experiments. CHP was obtained from Alfa Aesar and used as received. All equipment was used in accordance with manufacturer specifications unless stated otherwise. Freezing point depression osmometry was performed using an Advanced Instruments, Inc. Model 3250 Osmometer. Viscosity measurements were made using the falling bob method with a Cambridge Applied Systems VL4100 viscometer.
The diamond symbols indicate molality of amine and ammonium ions. The square symbols indicate the total species molality including amines, ammonium ions, and carbonate species. […] There is strong evidence that as osmotic pressures increase, there are diminishing returns in terms of kinetics for osmotic flux. For any osmotic pressure over 370 atm, the osmotic pressure of a saturated NaCl solution is likely to be less important than solute and solution properties like diffusion and viscosity.
The maximum osmotic pressures of different tertiary amines were determined by osmometry.

The nature of data set [3]: Viscosity and density of the CHP-H+ draw solution. It counts as physicochemical. The protocol: as §1
DI water (229.7 g) and CHP (221.2 g, 1.32 mol) were placed in a bottle equipped with a gas diffuser and exposed to a steady stream of carbon dioxide for 3 hours while being stirred with a magnetic stir bar. The resulting product was a clear homogeneous solution with a mass of 491.4 g, a solution viscosity of 44.0 cP at 15.0° C., and a density of 1.09 g/ml at 21° C. After exposure to the carbon dioxide, the solution contained CHP-H^+ (i.e., CHP in its polar form).

Data set [4] can be described thus: Draw solution degassing monitored by freezing point osmometry. Format: physicochemical. Particulars: for temperature needed to degas: ambient atmospheric pressure, comparable kinetics. From the text: To determine the relative performance of CHP and DMCA at different temperatures, draw solutions containing CHP or DMCA were recirculated through a segment of a heat exchanger featuring a high surface area honeycomb composition design with a temperature regulated fluid recirculated through the other path. Concentration data was collected with a freezing point osmometer by conventional techniques. Osmolality is an excellent predictor for the pressure needed to remove dissolved solids by filtration. Generally, 1 Osm/Kg corresponds to about 24.5 atm.
Upon addition of one atm of CO2 to the draw solution of Example 1, the oily, nonpolar CHP readily produced the corresponding polar ammonium bicarbonate acid-base salt. To test the degassing process, CHP-ammonium bicarbonate solutions were recirculated through a high surface area heat exchanger with a gear pump while the other loop of the heat exchanger was attached to a recirculating heat bath that was set to the desired temperature. The experiment progression was monitored with a freezing point osmometry. The degassing process was intended to reduce the solution osmotic pressure, reducing it to nothing or minimizing it for a low pressure RO treatment. The progress of the degassing reaction was measured by osmometry, which corresponds to osmotic pressure and can be rapidly obtained. For comparison, a draw solution including DMCA-H^+ was also investigated. In the case of DMCA at full concentration, it will start degassing at a temperature as low as 25° C., requiring viscosity measurements to be made at 15° C. However, DMCA requires nearly reflux conditions to fully remove the CO2.

For data set [5] the following is noted: at 25° C.; cited from earlier work.
For data set [6] the following is noted: saturated NaCl solution; cited from earlier work.

With `C1CCC(N2CCCCC2)CC1` [CHP-H^+], the “water flux (initial flux)” value in data set [1] came out at 10 kg/m^2 hr. Also, in data set [2], the “maximum osmotic pressure (projected)” value is reported as “greater than 500 atm”. The molecule also yielded a solution viscosity in data set [3] (draw solution of Example 1, at 15.0° C.) of 44.0 cP. In data set [3] (draw solution of Example 1, at 21° C.), this molecule yielded a density of 1.09 g/mL. Also, the osmolality after degassing in data set [4] (70° C., after extended treatment) is given as 0.2 Osm/Kg; in data set [4] (70° C., within 3 hours) it was 0.6 Osm/Kg.

With `CN(C)C1CCCCC1` [DMCA, N,N-dimethylcyclohexylamine], in data set [5], the vapor pressure result is on record as “about 2.2 mm Hg”. In data set [4], the “temperature needed to degas” value is “about 95 °C”. The “temperature at which degassing starts” value in data set [4] (full concentration) came to 25 °C.

In the case of `[Cl-].[Na+]` [NaCl, reference compound], in data set [1], the “water flux (initial flux)” value is given as 10 kg/m^2 hr. Besides, in data set [6], the osmotic pressure was 370 atm.

Take `C1CCC(N2CCCCC2)CC1` [CHP, 1-cyclohexylpiperidine]: in data set [5], the vapor pressure result is recorded as “about 0.1 mm Hg”. Moreover, in data set [2], the “amine:carbonic acid ratio” value is given as 1.00; the “maximum osmotic pressure (projected)” value is 536 atm and > 500 atm. For the same molecule, in data set [2] (by osmometry, FIG. 4), the maximum osmotic pressure result was “greater than 250 atm”. In addition, the “temperature needed to degas” value in data set [4] was “about 70 °C”.

As to `CN(C)C1CCCCC1.O=C(O)O` [DMCA-H^+, dimethylcyclohexylammonium bicarbonate], the “maximum osmotic pressure (projected)” value in data set [2] is given as around 835 atm. The osmolality after degassing is listed as 2.4 Osm/Kg in data set [4] (70° C., after 4-6 hours) and 0.2 Osm/Kg in data set [4] (95° C., after 6.5 hours).

For orientation: density means mass per unit of volume.
